# Measured values reported in PMC5218480 (PLoS ONE, 2017).
# Tested on: MV-4-11 cells
# Experiment: Gene expression microarray analysis (Affymetrix PrimeView) and GSEA
# Format: cell-based, human
# Parameters: RFU PODN (11730768_x_at) / Fold change /veh PODN (11730768_x_at) / RFU LINC00158 (11744669_a_at) / Fold change /veh LINC00158 (11744669_a_at) / RFU DUSP10 (11751237_a_at) / Fold change /veh DUSP10 (11751237_a_at) / RFU ID3 (11757404_x_at) / Fold change /veh ID3 (11757404_x_at) / RFU PLEKHG5 (11737974_s_at) / Fold change /veh PLEKHG5 (11737974_s_at) / RFU LRRC4B (11730491_at) / Fold change /veh LRRC4B (11730491_at) / RFU GIMAP4 (11747438_a_at) / Fold change /veh GIMAP4 (11747438_a_at) / RFU KRT8 (11758183_x_at) / Fold change /veh KRT8 (11758183_x_at) / RFU CNN1 (11734310_a_at) / Fold change /veh CNN1 (11734310_a_at) / RFU VPS37D (11726825_at) / Fold change /veh VPS37D (11726825_at) / RFU C10orf10 (11716522_x_at) / Fold change /veh C10orf10 (11716522_x_at) / RFU KIR2DL2 /// KIR2DL4 /// KIR2DL5A /// KIR2DL5B /// KIR2DS1 /// KIR2DS2 /// KIR2DS3 /// KIR2DS4 /// KIR3DL3 /// KIR3DL3 /// KIR3DS1 (11738374_at) / Fold change /veh KIR2DL2 /// KIR2DL4 /// KIR2DL5A /// KIR2DL5B /// KIR2DS1 /// KIR2DS2 /// KIR2DS3 /// KIR2DS4 /// KIR3DL3 /// KIR3DL3 /// KIR3DS1 (11738374_at) / RFU C1QL1 (11718748_at) / Fold change /veh C1QL1 (11718748_at) / RFU TMPRSS4 (11747572_a_at) / Fold change /veh TMPRSS4 (11747572_a_at) / RFU HAMP (11756126_x_at) / Fold change /veh HAMP (11756126_x_at) / RFU RNFT2 (11725882_a_at) / Fold change /veh RNFT2 (11725882_a_at) / RFU NR4A2 (11747474_a_at) / Fold change /veh NR4A2 (11747474_a_at) / RFU ABCC12 (11746883_a_at) / Fold change /veh ABCC12 (11746883_a_at) / RFU TMEM136 (11760407_x_at) / Fold change /veh TMEM136 (11760407_x_at) / RFU CLDN22 /// WWC2 (11732394_at) / Fold change /veh CLDN22 /// WWC2 (11732394_at) / RFU HLA-DPB1 (11760878_x_at) / Fold change /veh HLA-DPB1 (11760878_x_at) / RFU SPINT1 (11716480_a_at) / Fold change /veh SPINT1 (11716480_a_at) / RFU GAP43 (11754022_s_at) / Fold change /veh GAP43 (11754022_s_at) / RFU A4GNT (11735810_at) / Fold change /veh A4GNT (11735810_at) / RFU PRB3 (11715151_x_at) / Fold change /veh PRB3 (11715151_x_at) / RFU TUBB4B (11761932_at) / Fold change /veh TUBB4B (11761932_at) / RFU CAPN14 (11732068_a_at) / Fold change /veh CAPN14 (11732068_a_at) / RFU TMCC2 (11721928_a_at) / Fold change /veh TMCC2 (11721928_a_at) / RFU IRGQ (11745062_a_at) / Fold change /veh IRGQ (11745062_a_at) / RFU FAM174B (11720279_a_at) / Fold change /veh FAM174B (11720279_a_at) / RFU TMPRSS4 (11748680_a_at) / Fold change /veh TMPRSS4 (11748680_a_at) / RFU FAM212B (11763350_a_at) / Fold change /veh FAM212B (11763350_a_at) / RFU PLEKHG5 (11743358_a_at) / Fold change /veh PLEKHG5 (11743358_a_at) / RFU ZSCAN30 (11745921_a_at) / Fold change /veh ZSCAN30 (11745921_a_at) / RFU CMKLR1 (11741424_a_at) / Fold change /veh CMKLR1 (11741424_a_at) / RFU LOC101060620 /// MAPK8IP1 (11723275_at) / Fold change /veh LOC101060620 /// MAPK8IP1 (11723275_at) / RFU SPTSSB (11747773_x_at) / Fold change /veh SPTSSB (11747773_x_at) / RFU PRSS12 (11739890_at) / Fold change /veh PRSS12 (11739890_at) / RFU BIN1 (11741810_x_at) / Fold change /veh BIN1 (11741810_x_at) / RFU WNT11 (11732464_a_at) / Fold change /veh WNT11 (11732464_a_at) / RFU C10orf10 (11716521_a_at) / Fold change /veh C10orf10 (11716521_a_at) / RFU C5orf56 (11738089_at) / Fold change /veh C5orf56 (11738089_at) / RFU CYB561 (11721691_x_at) / Fold change /veh CYB561 (11721691_x_at) / RFU ANKRD19P (11752326_a_at) / Fold change /veh ANKRD19P (11752326_a_at) / RFU OR2T12 /// OR2T33 /// OR2T8 (11738714_s_at) / Fold change /veh OR2T12 /// OR2T33 /// OR2T8 (11738714_s_at) / RFU VCAN (11748164_a_at) / Fold change /veh VCAN (11748164_a_at) / RFU JSRP1 (11732532_at) / Fold change /veh JSRP1 (11732532_at) / RFU KRTAP10-11 (11738290_x_at) / Fold change /veh KRTAP10-11 (11738290_x_at) / RFU MYO3A (11730013_a_at) / Fold change /veh MYO3A (11730013_a_at) / RFU EBF3 (11725865_a_at) / Fold change /veh EBF3 (11725865_a_at) / RFU CAMK2N1 (11719241_x_at) / Fold change /veh CAMK2N1 (11719241_x_at) / RFU C5orf56 (11738088_a_at) / Fold change /veh C5orf56 (11738088_a_at) / RFU OLFML3 (11715873_a_at) / Fold change /veh OLFML3 (11715873_a_at) / RFU LOC100653217 /// NTM (11731650_a_at) / Fold change /veh LOC100653217 /// NTM (11731650_a_at) / RFU MAPK11 (11762145_a_at) / Fold change /veh MAPK11 (11762145_a_at) / RFU FIZ1 (11724087_x_at) / Fold change /veh FIZ1 (11724087_x_at) / RFU OASL (11726364_x_at) / Fold change /veh OASL (11726364_x_at) / RFU SOX15 (11748057_x_at) / Fold change /veh SOX15 (11748057_x_at) / RFU CD79A (11719716_a_at) / Fold change /veh CD79A (11719716_a_at) / RFU HIST1H1D (11736915_at) / Fold change /veh HIST1H1D (11736915_at) / RFU CASKIN2 (11723855_a_at) / Fold change /veh CASKIN2 (11723855_a_at) / RFU LOC730098 (11760151_x_at) / Fold change /veh LOC730098 (11760151_x_at) / RFU OR4N2 (11742367_at) / Fold change /veh OR4N2 (11742367_at) / RFU PRRT2 (11749266_a_at) / Fold change /veh PRRT2 (11749266_a_at) / RFU SNX32 (11753110_a_at) / Fold change /veh SNX32 (11753110_a_at) / RFU CDHR5 (11726645_a_at) / Fold change /veh CDHR5 (11726645_a_at) / RFU RCAN1 (11760418_a_at) / Fold change /veh RCAN1 (11760418_a_at) / RFU FAM167A (11723789_a_at) / Fold change /veh FAM167A (11723789_a_at) / RFU FAM26E (11764081_at) / Fold change /veh FAM26E (11764081_at) / RFU ISYNA1 (11749810_s_at) / Fold change /veh ISYNA1 (11749810_s_at) / RFU ACY1 (11761880_at) / Fold change /veh ACY1 (11761880_at) / RFU 11764098_at / Fold change /veh 11764098_at / RFU SAMD14 (11745864_x_at) / Fold change /veh SAMD14 (11745864_x_at) / RFU NPB (11741838_a_at) / Fold change /veh NPB (11741838_a_at) / RFU TMPRSS6 (11731388_a_at) / Fold change /veh TMPRSS6 (11731388_a_at) / RFU KRTAP10-2 (11738614_at) / Fold change /veh KRTAP10-2 (11738614_at) / RFU ARHGAP8 /// PRR5-ARHGAP8 (11727945_x_at) / Fold change /veh ARHGAP8 /// PRR5-ARHGAP8 (11727945_x_at) / RFU KRTAP5-7 /// NADSYN1 (11734609_at) / Fold change /veh KRTAP5-7 /// NADSYN1 (11734609_at) / RFU RASL12 (11751679_a_at) / Fold change /veh RASL12 (11751679_a_at) / RFU CDKN2B (11736163_a_at) / Fold change /veh CDKN2B (11736163_a_at) / RFU PRF1 (11729649_at) / Fold change /veh PRF1 (11729649_at) / RFU, ZNF638 /// ZNF638-IT1 / Fold change vs veh, ZNF638 /// ZNF638-IT1 / RFU, PANK3 / Fold change vs veh, PANK3 / RFU, SH3YL1 / Fold change vs veh, SH3YL1 / RFU, ZEB2 / Fold change vs veh, ZEB2 / RFU, NRIP1 / Fold change vs veh, NRIP1 / RFU, PTTG1IP / Fold change vs veh, PTTG1IP / RFU, CAPN2 / Fold change vs veh, CAPN2 / RFU, MED14 / Fold change vs veh, MED14 / RFU, SNORA58 / Fold change vs veh, SNORA58 / RFU, C1orf63 / Fold change vs veh, C1orf63 / RFU, LRRFIP1 / Fold change vs veh, LRRFIP1 / RFU, NDUFAF7 / Fold change vs veh, NDUFAF7 / RFU, SLC12A2 / Fold change vs veh, SLC12A2 / RFU, IBTK / Fold change vs veh, IBTK / RFU, ESF1 / Fold change vs veh, ESF1 / Fold change vs veh, TMEM50B / RFU, TAOK1 / Fold change vs veh, TAOK1 / RFU, ACBD3 / Fold change vs veh, ACBD3 / RFU, TMA16 / Fold change vs veh, TMA16 / RFU, RWDD3 / Fold change vs veh, RWDD3 / RFU, BCAT1 / Fold change vs veh, BCAT1 / RFU, EDEM3 / Fold change vs veh, EDEM3 / RFU, TMEM33 / Fold change vs veh, TMEM33 / RFU, WDR75 / Fold change vs veh, WDR75 / RFU, AHCTF1 / Fold change vs veh, AHCTF1 / RFU, TFRC / Fold change vs veh, TFRC / RFU, ZDHHC17 / Fold change vs veh, ZDHHC17 / RFU, NOM1 / Fold change vs veh, NOM1 / RFU, ARL8B / Fold change vs veh, ARL8B / RFU, ZBTB11 / Fold change vs veh, ZBTB11 / RFU, TAMM41 / Fold change vs veh, TAMM41 / RFU, KIAA1704 /// LOC100996395 / Fold change vs veh, KIAA1704 /// LOC100996395 / RFU, ING1 / Fold change vs veh, ING1 / RFU, TRMT61B / Fold change vs veh, TRMT61B / RFU, FUBP3 / Fold change vs veh, FUBP3 / RFU, TP53 / Fold change vs veh, TP53 / RFU, TNKS2 / Fold change vs veh, TNKS2 / RFU, ZFP14 / Fold change vs veh, ZFP14 / RFU, ACTR2 / Fold change vs veh, ACTR2 / RFU, PPP3R1 / Fold change vs veh, PPP3R1 / RFU, PIK3R1 / Fold change vs veh, PIK3R1 / RFU, HNRNPA1 / Fold change vs veh, HNRNPA1 / RFU, RNF170 / Fold change vs veh, RNF170 / RFU, ZNF28 / Fold change vs veh, ZNF28 / RFU, RNGTT / Fold change vs veh, RNGTT / RFU, OGT / Fold change vs veh, OGT / RFU, BRD1 / Fold change vs veh, BRD1 / RFU, MARS / Fold change vs veh, MARS / RFU, ZNF655 / Fold change vs veh, ZNF655 / RFU, FAHD1 / Fold change vs veh, FAHD1 / RFU, BDP1 / Fold change vs veh, BDP1 / RFU, LRRCC1 / Fold change vs veh, LRRCC1 / RFU, ARID1A / Fold change vs veh, ARID1A / RFU, ZNF146 / Fold change vs veh, ZNF146 / RFU, ZNF330 / Fold change vs veh, ZNF330 / RFU, GPN3 / Fold change vs veh, GPN3 / RFU, C9orf123 / Fold change vs veh, C9orf123 / RFU, N4BP2L2 / Fold change vs veh, N4BP2L2 / RFU, ARFIP1 / Fold change vs veh, ARFIP1 / RFU, FAM179B / Fold change vs veh, FAM179B / RFU, BCL10 / Fold change vs veh, BCL10 / RFU, UHRF1BP1L / Fold change vs veh, UHRF1BP1L / RFU, BET1 / Fold change vs veh, BET1 / RFU, CNOT2 / Fold change vs veh, CNOT2 / RFU, ZNF268 / Fold change vs veh, ZNF268 / Fold change vs veh, ZNF507 / RFU, DGCR2 / Fold change vs veh, DGCR2 / RFU, WDSUB1 / Fold change vs veh, WDSUB1 / Fold change vs veh, HSP90B1 /// MIR3652 / RFU, ADSS / Fold change vs veh, ADSS / RFU, GK / Fold change vs veh, GK / RFU, ZNF148 / Fold change vs veh, ZNF148 / RFU, TAF9 / Fold change vs veh, TAF9 / RFU, SLC1A5 / Fold change vs veh, SLC1A5 / RFU, SLMO2 / Fold change vs veh, SLMO2 / RFU, ABCC4 / Fold change vs veh, ABCC4 / RFU, LOC101060439 /// RAP1B / Fold change vs veh, LOC101060439 /// RAP1B / RFU, RFX7 / Fold change vs veh, RFX7 / RFU, GTPBP10 / Fold change vs veh, GTPBP10 / RFU, CNEP1R1 / Fold change vs veh, CNEP1R1 / RFU, BIVM-ERCC5 /// ERCC5 / Fold change vs veh, BIVM-ERCC5 /// ERCC5 / RFU, ILF3 / Fold change vs veh, ILF3 / RFU 11762660_at / Fold change /veh 11762660_at / RFU VCAN (11757783_s_at) / Fold change /veh VCAN (11757783_s_at) / RFU DDX43 (11728927_at) / Fold change /veh DDX43 (11728927_at) / RFU KRT8 (11758188_x_at) / Fold change /veh KRT8 (11758188_x_at) / RFU NKD1 (11759106_at) / Fold change /veh NKD1 (11759106_at) / RFU SRD5A1 (11742802_a_at) / Fold change /veh SRD5A1 (11742802_a_at) / RFU TPSAB1 /// TPSB2 (11721975_s_at) / Fold change /veh TPSAB1 /// TPSB2 (11721975_s_at) / RFU GSTM3 (11746129_a_at) / Fold change /veh GSTM3 (11746129_a_at) / RFU IL23R (11737362_x_at) / Fold change /veh IL23R (11737362_x_at) / RFU TMEM51 (11727254_a_at) / Fold change /veh TMEM51 (11727254_a_at) / RFU PIWIL2 (11732686_x_at) / Fold change /veh PIWIL2 (11732686_x_at) / RFU ORM1 (11744905_x_at) / Fold change /veh ORM1 (11744905_x_at) / RFU CCDC152 (11743942_at) / Fold change /veh CCDC152 (11743942_at) / RFU ECM1 (11717891_a_at) / Fold change /veh ECM1 (11717891_a_at) / RFU IL23R (11748794_a_at) / Fold change /veh IL23R (11748794_a_at) / RFU TNFAIP8L3 (11732012_x_at) / Fold change /veh TNFAIP8L3 (11732012_x_at) / RFU MBOAT4 (11741988_at) / Fold change /veh MBOAT4 (11741988_at) / RFU 11764193_at / Fold change /veh 11764193_at / RFU TMEM53 (11763286_at) / Fold change /veh TMEM53 (11763286_at) / RFU MAGEB2 (11727129_at) / Fold change /veh MAGEB2 (11727129_at) / RFU TMEM200A (11744735_a_at) / Fold change /veh TMEM200A (11744735_a_at) / RFU CCDC152 (11751479_a_at) / Fold change /veh CCDC152 (11751479_a_at) / RFU FAM211A (11726209_a_at) / Fold change /veh FAM211A (11726209_a_at) / RFU RGS16 (11746705_a_at) / Fold change /veh RGS16 (11746705_a_at) / RFU VCAN (11755009_s_at) / Fold change /veh VCAN (11755009_s_at) / RFU RHOB (11743442_s_at) / Fold change /veh RHOB (11743442_s_at) / RFU RGS16 (11720943_a_at) / Fold change /veh RGS16 (11720943_a_at) / RFU RGS16 (11720944_at) / Fold change /veh RGS16 (11720944_at) / RFU, VPS4B / Fold change vs veh, VPS4B / RFU, CREB1 / Fold change vs veh, CREB1 / RFU, DNAJC13 / Fold change vs veh, DNAJC13 / RFU, GNAQ / Fold change vs veh, GNAQ / RFU, CDK5R1 / Fold change vs veh, CDK5R1 / RFU, ZRANB3 / Fold change vs veh, ZRANB3 / RFU, CUL4A / Fold change vs veh, CUL4A / RFU, CCNY / Fold change vs veh, CCNY / RFU, UFL1 / Fold change vs veh, UFL1 / RFU, COG3 / Fold change vs veh, COG3 / RFU, DIAPH2 / Fold change vs veh, DIAPH2 / RFU, SKA2 / Fold change vs veh, SKA2 / RFU, AFF3 / Fold change vs veh, AFF3 / RFU, LMF1 / Fold change vs veh, LMF1 / RFU, IPO11 / Fold change vs veh, IPO11 / RFU, DFFB / Fold change vs veh, DFFB / RFU, FOXP1 / Fold change vs veh, FOXP1 / RFU, CARD8 / Fold change vs veh, CARD8 / RFU, STRN3 / Fold change vs veh, STRN3 / RFU, ADK / Fold change vs veh, ADK / RFU, RASSF2 / Fold change vs veh, RASSF2 / RFU, WIPF1 / Fold change vs veh, WIPF1 / RFU, LARP1B / Fold change vs veh, LARP1B / RFU, RASA1 / Fold change vs veh, RASA1 / RFU, RB1 / Fold change vs veh, RB1 / RFU, PPFIA1 / Fold change vs veh, PPFIA1 / RFU, MAT2A / Fold change vs veh, MAT2A / RFU, CCT5 / Fold change vs veh, CCT5 / RFU, WDR92 / Fold change vs veh, WDR92 / RFU, CUX1 / Fold change vs veh, CUX1 / RFU, TTC7A / Fold change vs veh, TTC7A / RFU, TMEM135 / Fold change vs veh, TMEM135 / RFU, DEPTOR / Fold change vs veh, DEPTOR / RFU, CPM / Fold change vs veh, CPM / RFU, DNAJB6 / Fold change vs veh, DNAJB6 / RFU, CACNA2D3 / Fold change vs veh, CACNA2D3 / RFU, DTX4 / Fold change vs veh, DTX4 / RFU, TFCP2 / Fold change vs veh, TFCP2 / RFU, GMCL1 /// GMCL1P1 / Fold change vs veh, GMCL1 /// GMCL1P1 / RFU, AEBP2 / Fold change vs veh, AEBP2 / RFU, SNHG1 /// SNORD22 /// SNORD25 /// SNORD26 /// SNORD27 /// SNORD28 /// SNORD29 /// SNORD31 / Fold change vs veh, SNHG1 /// SNORD22 /// SNORD25 /// SNORD26 /// SNORD27 /// SNORD28 /// SNORD29 /// SNORD31 / Fold change (Aza/veh), C12orf56 (ProbeSet 11735607_a_at) / Fold change (ACY-1035/veh), C12orf56 (ProbeSet 11735607_a_at) / Fold change (Aza/veh), FGFR1OP (ProbeSet 11751329_s_at) / Fold change (ACY-1035/veh), FGFR1OP (ProbeSet 11751329_s_at) / Fold change (Aza/veh), VPS36 (ProbeSet 11739960_a_at) / Fold change (ACY-1035/veh), VPS36 (ProbeSet 11739960_a_at) / RFU SYPL1 (11715823_x_at) / Fold change /veh SYPL1 (11715823_x_at) / RFU IGFBP7 (11715501_s_at) / Fold change /veh IGFBP7 (11715501_s_at) / RFU REEP3 (11722064_at) / Fold change /veh REEP3 (11722064_at) / RFU IGLL1 (11728026_x_at) / Fold change /veh IGLL1 (11728026_x_at): dose or concentration left out as unconfirmed
# Conditions: MV-4-11 cells, 48 hours
smiles,measurement,value
Nc1ncn([C@@H]2O[C@H](CO)[C@@H](O)[C@H]2O)c(=O)n1 [azacitidine],Fold change /veh RGS16 (11720944_at),1.54
